SMILES strings stand for the structures. Counter-ions that a name gives are not always drawn. Like-named read-outs stand apart in the source and are kept apart here.

The test system of data set [1] is SUDHL5 cells. Briefly: Induction of cytotoxicity (CellTiter-Glo, 5 h), SUDHL5. The note with it: SUDHL5, 5 h. For orientation: ATP-based viability assays read luminescence as a measure of living cells.
For data set [2], the system named is SUDHL10 cells. Briefly: Induction of cytotoxicity (CellTiter-Glo, 5 h), SUDHL10. The note with it: SUDHL10, 5 h.
Data set [3] relates to SUDHL5 cells. Briefly: Antiproliferation assay (CellTiter-Glo, 72 h), SUDHL5. The data set is classed as cell-based. The note with it: IC50, median, SUDHL5, 72 h, read-out: Antiproli SUDHL5 [M] (median). Here is the method: (§1) Assessment of the Anti-Proliferative Effect of Compounds in Different Cell Lines
(§2) The impact of compounds on the proliferation of different cell lines was assessed using the CellTiter-Glo® Luminescent Cell Viability reagent from Promega (G7573).
(§3) In parallel, cells were plated in a reference (day 0) plate for time zero determination.
(§4) Rim wells were excluded. The cells were incubated for 72 h hours in a humidified incubator at 37° C. The day 0 plate was measured by adding 30 μL/well of CTG solution (CellTiter-Glo® Luminescent Cell Viability reagent, Promega G7573) to time zero wells in the reference plate followed by a 10 minutes incubation and luminescence reading at 0.1 ms. using the PHERAstar FS microplate reader (BMG Labtech).
(§5) After 72 h incubation, the treated plates were measured in the same way as the day 0 plate mentioned above.

A further data set has as its system AMO-1 cells. As to the kind of experiment: Antiproliferation assay (CellTiter-Glo, 72 h), AMO-1. The data set is classed as cell-based. The note with it: IC50, median, AMO-1, 72 h, read-out: Antiproli AMO-1 [M] median. The protocol:
as §1, §2, §3, §4, §5

Data set [4] deals with SUDHL10 cells. Briefly: Induction of caspase-3/7 activity (Caspase-Glo 3/7), SUDHL10. As to conditions: EC50, median, SUDHL10, 3 h treatment. Format: cell-based. Here is the method:
(§6) Induction of Caspase-3/7 Activity Upon Treatment of Cells with Selected Compounds
(§7) The BH3-domain of MCL-1 sequesters pro-apoptotic proteins, thereby inhibiting apoptosis. In contrast, MCL-1 inhibitors are expected to antagonize this effect leading to an increase in apoptosis, which can be determined by measuring the activity of caspase-3/7.
(§8) The activity of caspase-3/7 was determined in DLBCL (Diffuse large B-cell lymphoma) cell lines (SUDHL5 and SUDHL10) upon treatment with different compounds, using the Caspase-Glo® 3/7 reagent from Promega (G8092).
(§9) Rim wells were excluded. The cells were incubated for 3 h hours in a humidified incubator at 37° C.
(§10) For the evaluation of the results, the background measured with “medium-only” was subtracted from all other values.

Data set [5] relates to SUDHL5 cells. Briefly: Induction of caspase-3/7 activity (Caspase-Glo 3/7), SUDHL5. Format: cell-based. The note with it: EC50, median, SUDHL5, 3 h treatment. The protocol:
as §6, §7, §8, §9, §10

Where [6] appears, read: read-out: Cytotox SUDHL5 [M] (median), IC50, median.
Setting [7] is: read-out: Cytotox SUDHL10 [M] (median), IC50, median.
Setting [8] is: Homo sapiens, SU-DHL-5, 5 h, read-out: Cytotox SUDHL5 [M] (median), IC50, median.
Where [9] appears, read: Homo sapiens, SU-DHL10, 5 h, read-out: Cytotox SUDHL10 [M] (median), IC50, median.

Usually EC50 stands for the concentration at which the effect is half-maximal. A lower EC50 goes with greater potency. In the case of `CCc1c2c(nn1C)CCCN(C)CCn1c(C(=O)O)c(CCCOc3cccc4cc(F)ccc34)c3ccc(Cl)c-2c31` (single isomer, unassigned) [Example 117, (−)-4-chloro-3-ethyl-7-{3-[(6-fluoronaphthalen-1-yl)oxy]propyl}-2,12-dimethyl-10,11,12,13,14,15-hexahydro-2H-pyrazolo[3′,4′:8,9][1,4]diazacycloundecino[10,11,1-hi]indole-8-carboxylic acid], the IC50 in the data set with SUDHL5 cells [1] (setting [6]) was 2.6e-06 M; in the data set on SUDHL10 cells [2] (setting [7]), 2.3e-06 M; in the data set with SUDHL5 cells [3], 3.4e-06 M; with AMO-1 cells it was 1.2e-06 M. The EC50 in the data set on SUDHL10 cells [4] was found to be 2600 nM; in the data set on SUDHL5 cells [5], 2400 nM.

In the case of `CCc1c2c(nn1C)CN(CCC(C)(C)O)CCCCn1c(C(=O)O)c(CCCOc3cccc4cc(F)ccc34)c3ccc(Cl)c-2c31` (single isomer, unassigned; enantiomer 2) [Example 141, 4-chloro-3-ethyl-7-{3-[(6-fluoronaphthalen-1-yl)oxy]propyl}-14-(3-hydroxy-3-methylbutyl)-2-methyl-10,11,12,13,14,15-hexahydro-2H-pyrazolo[3′,4′:8,9][1,6]diazacycloundecino[10,11,1-hi]indole-8-carboxylic acid (Enantiomer 2)], the IC50 in the data set with SUDHL5 cells [1] (setting [8]) worked out at 2.6e-06 M; in the data set with SUDHL10 cells [2] (setting [9]), 3.6e-06 M; in the data set on SUDHL5 cells [3] (Homo sapiens, SU-DHL-5, 72 h), 1.6e-06 M; in the data set with AMO-1 cells (Homo sapiens, AMO1, 72 h), 2.4e-06 M. The EC50 in the data set on SUDHL10 cells [4] (Homo sapiens, SU-DHL10, 3 h) worked out at 3600 nM; with SUDHL5 cells [5] (Homo sapiens, SU-DHL-5, 3 h), 3000 nM.

As for `CCc1c2c(nn1C)CN(CCC1CCOCC1)CCCCn1c(C(=O)O)c(CCCOc3cccc4cc(F)ccc34)c3ccc(Cl)c-2c31` (single isomer, unassigned; enantiomer 2) [Example 137, 4-chloro-3-ethyl-7-{3-[(6-fluoronaphthalen-1-yl)oxy]propyl}-2-methyl-14-[2-(oxan-4-yl)ethyl]-10,11,12,13,14,15-hexahydro-2H-pyrazolo[3′,4′:8,9][1,6]diazacycloundecino[10,11,1-hi]indole-8-carboxylic acid N-ethylethanamine (Enantiomer 2)], the IC50 is 8.2e-06 M with SUDHL5 cells [1] (setting [8]); 7.7e-06 M with SUDHL10 cells [2] (setting [9]); 5.1e-06 M in the data set on SUDHL5 cells [3] (Homo sapiens, SU-DHL-5, 72 h); 5e-06 M with AMO-1 cells (Homo sapiens, AMO1, 72 h).

For `CCc1c2c(nn1C)COCC1(CCn3c(C(=O)O)c(CCCOc4cccc5cc(F)ccc45)c4ccc(Cl)c-2c43)CC1` [Example 111, (+)-4′-chloro-3′-ethyl-7′-{3-[(6-fluoronaphthalen-1-yl)oxy]propyl}-2′-methyl-2′,10′,11′,15′-tetrahydro-13′H-spiro[cyclopropane-1,12′-pyrazolo[4′,3′:9,10][1,6]oxazacycloundecino[8,7,6-hi]indole]-8′-carboxylic acid-N-ethylethanamine salt], the IC50 in the data set with SUDHL5 cells [1] (setting [6]) was 6e-06 M; in the data set with SUDHL10 cells [2] (setting [7]), 6.7e-06 M; with SUDHL5 cells [3] it was 3.1e-07 M; with AMO-1 cells it was 8.4e-06 M. Further, the results for the EC50 in the data set on SUDHL10 cells [4] and in the data set with SUDHL5 cells [5] were 4900 nM and 5000 nM, respectively.

For `CCc1c2c(nn1C)COCCCCn1c(C(=O)O)c(CCCOc3cccc4cc(F)ccc34)c3ccc(Cl)c-2c31` (single isomer, unassigned; enantiomer 1) [Example 69, 4-chloro-3-ethyl-7-{3-[(6-fluoronaphthalen-1-yl)oxy]propyl}-2-methyl-2,10,11,12,13,15-hexahydropyrazolo[4′,3′:9,10][1,6]oxazacycloundecino[8,7,6-hi]indole-8-carboxylic acid (Enantiomer 1)], the IC50 with SUDHL5 cells [1] (setting [8]) amounted to 2.3e-06 M; with SUDHL10 cells [2] (setting [9]), 7.3e-06 M; with SUDHL5 cells [3] (Homo sapiens, SU-DHL-5, 72 h), 4.2e-06 M. In addition, the concentration giving a half-maximal response (EC50) in the data set on SUDHL10 cells [4] (Homo sapiens, SU-DHL10, 3 h) is 8300 nM; in the data set on SUDHL5 cells [5] (Homo sapiens, SU-DHL-5, 3 h), 1800 nM.

With `Cc1c2c(nn1C)COCC1CCC1Cn1c(C(=O)O)c(CCCOc3cccc4ccccc34)c3ccc(Cl)c-2c31` (single isomer, unassigned) [Example 80, 3-chloro-4,5-dimethyl-15-{3-[(naphthalen-1-yl)oxy]propyl}-5,7,9,9a,10,11,11a,12-octahydrocyclobuta[3,4]pyrazolo[4′,3′:9,10][1,6]oxazacycloundecino[8,7,6-hi]indole-14-carboxylic acid], the IC50 is 5.8e-07 M in the data set on SUDHL5 cells [1] (read-out: Cytotox SUDHL5 [M] (median), IC50, median, listed as 080); 8.1e-07 M in the data set with SUDHL10 cells [2] (read-out: Cytotox SUDHL10 [M] (median), IC50, median, listed as 080); 2.2e-07 M in the data set on SUDHL5 cells [3] (Homo sapiens, SU-DHL-5, 72 h); 1.9e-06 M in the data set with AMO-1 cells (Homo sapiens, AMO1, 72 h). Also, the figures for the EC50 in the data set with SUDHL10 cells [4] (listed as 080) and in the data set with SUDHL5 cells [5] (listed as 080) were 450 nM and 490 nM, respectively.

Consider `CCc1c2c(nn1C)CN(C)CC(F)(F)CCn1c(C(=O)O)c(CCCOc3cccc4cc(F)ccc34)c3ccc(Cl)c-2c31` (single isomer, unassigned) [Example 128, 4-chloro-3-ethyl-12,12-difluoro-7-{3-[(6-fluoronaphthalen-1-yl)oxy]propyl}-2,14-dimethyl-10,11,12,13,14,15-hexahydro-2H-pyrazolo[3′,4′:8,9][1,6]diazacycloundecino[10,11,1-hi]indole-8-carboxylic acid], for which the IC50 came to 2.3e-06 M in the data set with SUDHL5 cells [1] (setting [6]), 3.6e-06 M in the data set with SUDHL10 cells [2] (setting [7]), 4.1e-06 M in the data set with SUDHL5 cells [3] and 6.5e-06 M in the data set on AMO-1 cells. The concentration giving a half-maximal response (EC50) in the data set on SUDHL10 cells [4] is 3400 nM; in the data set with SUDHL5 cells [5] it was 2100 nM.

For the compound `CCc1c2c(nn1C)CCCCCCn1c(C(=O)O)c(CCCOc3cccc4cc(F)ccc34)c3ccc(Cl)c-2c31` (single isomer, unassigned; enantiomer 1) [Example 70, (+)-4-chloro-3-ethyl-7-{3-[(6-fluoronaphthalen-1-yl)oxy]propyl}-2-methyl-10,11,12,13,14,15-hexahydro-2H-pyrazolo[4′,3′:4,5]azacycloundecino[3,2,1-hi]indole-8-carboxylic acid-N-ethylethanamine salt (Enantiomer 1)], the IC50 was 1e-06 M in the data set on SUDHL5 cells [1] (setting [8]); 1.7e-06 M with SUDHL10 cells [2] (setting [9]); 1.5e-06 M with SUDHL5 cells [3] (Homo sapiens, SU-DHL-5, 72 h); 1.1e-06 M in the data set with AMO-1 cells (Homo sapiens, AMO1, 72 h). The concentration for a half-maximal effect (EC50) worked out at 1300 nM in the data set with SUDHL10 cells [4] (Homo sapiens, SU-DHL10, 3 h) and 710 nM with SUDHL5 cells [5] (Homo sapiens, SU-DHL-5, 3 h).

For the compound `Cc1c2c(nn1C)COCCCCn1c(C(=O)O)c(CCCOc3cccc4cc(F)ccc34)c3ccc(Cl)c-2c31` (single isomer, unassigned; enantiomer 1) [Example 16, (−)-4-chloro-7-{3-[(6-fluoronaphthalen-1-yl)oxy]propyl}-2,3-dimethyl-2,10,11,12,13,15-hexahydropyrazolo[4′,3′:9,10][1,6]oxazacycloundecino[8,7,6-hi]indole-8-carboxylic acid (Enantiomer 1)], the IC50 in the data set on SUDHL5 cells [1] (setting [8]) turned out to be 3.3e-06 M; in the data set on SUDHL10 cells [2] (setting [9]), 4.9e-06 M; in the data set with SUDHL5 cells [3] (Homo sapiens, SU-DHL-5, 72 h), 1.5e-06 M; in the data set on AMO-1 cells (Homo sapiens, AMO1, 72 h) it was 8.9e-06 M. Moreover, the EC50 in the data set on SUDHL10 cells [4] (Homo sapiens, SU-DHL10, 3 h) is 5200 nM; with SUDHL5 cells [5] (Homo sapiens, SU-DHL-5, 3 h), 3600 nM.

Take `CCc1c2c(nn1C)COCC1(CCn3c(C(=O)O)c(CCCOc4cccc5ccccc45)c4ccc(Cl)c-2c43)CC1` (racemic) [Example 72, (rac)-4′-chloro-3′-ethyl-2′-methyl-7′-{3-[(naphthalen-1-yl)oxy]propyl}-2′,10′,11′,15′-tetrahydro-13′H-spiro[cyclopropane-1,12′-pyrazolo[4′,3′:9,10][1,6]oxazacycloundecino[8,7,6-hi]indole]-8′-carboxylic acid]: the IC50 with SUDHL5 cells [1] (setting [8]) came out at 1e-06 M; in the data set on SUDHL10 cells [2] (setting [9]) it was 2.5e-06 M; in the data set on SUDHL5 cells [3] (Homo sapiens, SU-DHL-5, 72 h), 8.8e-07 M; in the data set with AMO-1 cells (Homo sapiens, AMO1, 72 h), 2.8e-06 M. Besides, the EC50 came to 2800 nM in the data set with SUDHL10 cells [4] (Homo sapiens, SU-DHL10, 3 h) and 730 nM in the data set with SUDHL5 cells [5] (Homo sapiens, SU-DHL-5, 3 h).

For `CCc1c2c(nn1C)COCC1CC1Cn1c(C(=O)O)c(CCCOc3cccc4cc(F)ccc34)c3ccc(Cl)c-2c31` (racemic) [Example 106, (rac)-3-chloro-4-ethyl-14-{3-[(6-fluoronaphthalen-1-yl)oxy]propyl}-5-methyl-5,7,9a,10,10a,11-hexahydro-9H-cyclopropa[3,4]pyrazolo[4′,3′:9,10][1,6]oxazacycloundecino[8,7,6-hi]indole-13-carboxylic acid], the IC50 in the data set on SUDHL5 cells [1] (setting [6]) turned out to be 2.8e-06 M; with SUDHL10 cells [2] (setting [7]) it was 5.8e-06 M; in the data set with SUDHL5 cells [3] it was 2.1e-06 M; with AMO-1 cells it was 8.1e-06 M. For the same compound, the half-maximal effective concentration (EC50) came to 4600 nM in the data set on SUDHL10 cells [4] and 2400 nM in the data set on SUDHL5 cells [5] (Homo sapiens, SU-DHL-5, 3 h).

The values are drawn from US11478451B1, “Macrocyclic chlorine substituted indole derivatives” (Bayer Aktiengesellschaft, priority 2017, dated 2022).
